Assay results from patent publication EP0091995B1, “New compound having antiinflammatory, analgesic and mucoregulating activity, process for its production and relative pharmaceutical compositions” (AUSONIA FARMACEUTICI S.r.l., priority 1982, dated 1983).

Legend:
[1] = Solubility of the product of the Example; format: physicochemical
Excerpt: Its structure is confirmed by analytical and spectroscopical data. • Elemental analysis: • for C23H3403(M.W. = 358.49) • calcd. % C = 77.05; H = 9.56 • found % C = 76.88; H = 9.60. • I.R. Spectrum • (liquid film; absorption band values are expressed in cm^-1): • stretch 0-H 3400-3250 • stretch C=O 1735 • stretch C-0 1205 • H^1 NMR Spectrum • (recorded in CDCI3, internal reference TMS; values of the chemical shifts are expressed in δ): • 0.65-1.2(m, 12H, -CH(CH3)2, C(CH3)2); • 1.3-2 (m, 12H, CH2―CH―CH2, CH2-CH, CH3-CH, OH mobile); • 2.3 (d, 3H, =C-CH3); • 3.5 (q, 1 H, CH3-CH-CO); • 4.7-5 (m, 1H,―CH―O―CO); • 5.3-5.6 (m, 1H, =CH-CH2); • 6.6-7 (m, 4H, aromatics).

[2] = tested on: Sprague-Dawley rats; test: Antiinflammatory activity, pleuritis by carrageenin (method of Vinegar); format: in vivo; conditions: oral route
[3] = tested on: male Wistar rat; test: Bronchosecretogogue activity (Mawatari technique); format: in vivo; conditions: 500 mg/kg/os; FlNa = Sodium fluoresceine
Excerpt: The bronchosecretogogue activity has been determined in male Wistar rat by per os administration according to the method of Mawatari [Mawatari H., Kagoshima Daigaku Igaku-Zasshi, 27, 561 (1976)], comparing AFP-695 with carboxymethylcysteine and sobrerol at the doses hereinafter stated.

[4] = tested on: Rats; test: Gastrolesive action (gastric mucosa examination); format: in vivo; conditions: rats fasting 18 hours; 5 hours 30 minutes after treatment; Ibuprofen 100 mg/kg/os, AFP-695 150 mg/kg/os
Procedure: 5 Hours and 30 minutes after treatments, the animals have been sacrificed and the stomach has been withdrawn for gastric mucosa examination.

[5] = tested on: male rabbit; test: Mucosecretolytic activity (technique of Giraldez et al); format: in vivo; conditions: 500 mg/kg/os
Excerpt: The mucosecretolytic activity has been studied in the male rabbit according to the technique of Giraldez, Grass and Bruseghini(Abstr. Comp. Int. Pharm. N. 1086-Paris 1978), by administration by the oral route, comparing AFP-695 with carboxymethylcysteine and sobrerol at the dose hereinafter stated.

[6] = tested on: rat; test: Antiinflammatory activity, subplantar edema by carrageenin; conditions: Ibuprofen 100 mg/kg os, AFP-695 150 mg/kg os
Procedure: Tests have been performed on the rat, employing the test of the subplantar edema induced by carrageenin. […] After edema induction, the animals of each group have been controlled, every 60 minutes for 5 consecutive hours, in order to point out the evolution of the inflammatory process.

[7] = tested on: mouse; test: Analgesic activity, writhings by phenylquinone; format: in vivo; conditions: 100 mg/kg os
Procedure: The test of writhings by phenylquinone in the mouse has been used.
The two drugs have been administered per os 30 minutes […] intraperitoneal injection of phenylquinone.

[8] = Acute toxicity (method of Litchfield and Wilcoxon); conditions: in vivo, oral, os
Excerpt: The acute toxicity has been determined in Swiss mouse and in Wistar rat for different administration routes, according to the method of Litchfield J.T. and Wilcoxon [J. Pharm. Exp. Therap. 96, 99-113, (1949)].
The results obtained are reported in the following Table I; from the same it can be pointed out how AFP is endowed with a very low acute toxicity.

[9] = tested on: rabbits; test: Anti-cough activity, cough induced by citric acid aerosol; conditions: mean number of cough strokes; endoperitoneal route; Codeine 12.5 mg/kg, AFP-695 150 mg/kg
[10] = Pharmacokinetics, plasma and lung levels by gas chromatography; format: in vivo, rats; conditions: 100 mg/kg per os; at 30 minutes, and in some instance also at 1 hour
Procedure: At the moment of treatment rats were fasting since 18 hours. Rats have been then sacrificed in groups of 4 at different times: 30 min., 1 h, 2 h, 4 h, 6 h.
The concentration both of unchanged products and of their metabolites have been measured by gas chromatography in plasma and in the lung.

SMILES | decrease of leucocytes number ([2]; 24th hour, equiponderant doses) | % Increase of FlNa(*) in comparison with controls [3] | Mean ulcers size [4] | % Increase of secretion in comparison with controls [5] | AREA % Inhibition in comparison with controls [6] | % Inhibition in comparison with controls [7] | Mean No. of writhings [7] | No. animals with writhings [7] | % Inhibition in comparison with controls [9] | also measured
CC1=CCC(C(C)(C)O)CC1OC(=O)C(C)c1ccc(CC(C)C)cc1 (stereo not drawn) [AFP-695, 2-methyl-5-(1-hydroxy-1-methylethyl)-cyclohex-2-enyl 2-(4-isobutylphenyl)propionate] | 60.89% | 51.6% | 0.9 ± 0.3 mm | 35.7% | 42.8% | 71.09% | 3.7 ± 1.2 | 3/10 | 78.1% | solubility in the common organic solvents ([1]; common organic solvents): easily soluble in the common organic solvents; solubility in water ([1]; water): substantially insoluble in water; decrease of the exudate volume, in comparison with control ([2]; 24th hour, equiponderant doses): 51.02%; decrease of the number of leucocytes ([2]; fifth hour after treatment): 70.91%; decrease of the exudate ([2]; fifth hour after treatment, 30 minutes before intrapleural injection): 41.84%; AREA Absolute value ([6]; area of limb volume over 0-5 hours): 156.2; MEAN LIMB VOLUME AT DIFFERENT HOURS AFTER TREATMENT 0 ([6]; hour 0, 30 minutes before carrageenin): 22.8; MEAN LIMB VOLUME AT DIFFERENT HOURS AFTER TREATMENT 1 ([6]; hour 1): 27.2; MEAN LIMB VOLUME AT DIFFERENT HOURS AFTER TREATMENT 2 ([6]; hour 2): 29.6; MEAN LIMB VOLUME AT DIFFERENT HOURS AFTER TREATMENT 3 ([6]; hour 3): 31.4; MEAN LIMB VOLUME AT DIFFERENT HOURS AFTER TREATMENT 4 ([6]; hour 4): 32.6; MEAN LIMB VOLUME AT DIFFERENT HOURS AFTER TREATMENT 5 ([6]; hour 5): 34.9; LD50 ([8]; Swiss, mouse): 1800 mg/kg; LD50 ([8]; Wistar, rat): 2200 mg/kg; unchanged AFP-695 in plasma [10]: has been found in plasma
COc1ccc2c3c1O[C@H]1[C@@H](O)C=C[C@H]4[C@@H](C2)N(C)CC[C@@]341 [Codeine, codeine, reference compound] | – | – | – | – | – | – | – | – | 76.7% | –
CC(C)Cc1ccc(C(C)C(=O)O)cc1 (stereo not drawn) [Ibuprofen, 2-(4-isobutylphenyl)-propionic acid, reference compound] | 5.58% | – | 9.6 ± 1.8 mm | – | 44.2% | 89.84% | 1.3 ± 0.5 | 1/10 | – | –
CC1=CCC(C(C)(C)O)CC1O (stereo not drawn) [Sobrerol, 2-methyl-5-(1-hydroxy-1-methyl-ethyl)-2-cyclohexen-1-ol, reference compound] | – | 33.4% | – | 36.8% | – | – | – | – | – | –
